Consider 24 molecules from patent publication US7919508B2, “3-piperidinylisochroman-5-ols as dopamine agonists” (Aventis Pharmaceuticals Inc., priority 2004, dated 2011).

A word on the Ki: it is the equilibrium dissociation constant of an inhibitor or competing ligand from its target. A word on the EC50: it is the concentration giving half of the maximal effect.

Structures can show the parent of a compound that is named as a salt.

The target of assay [1] is human dopamine D2Long (D2L) receptors (Homo sapiens, UniProt P14416).
Chain of human dopamine D2Long (D2L) receptors (P14416 whole entry): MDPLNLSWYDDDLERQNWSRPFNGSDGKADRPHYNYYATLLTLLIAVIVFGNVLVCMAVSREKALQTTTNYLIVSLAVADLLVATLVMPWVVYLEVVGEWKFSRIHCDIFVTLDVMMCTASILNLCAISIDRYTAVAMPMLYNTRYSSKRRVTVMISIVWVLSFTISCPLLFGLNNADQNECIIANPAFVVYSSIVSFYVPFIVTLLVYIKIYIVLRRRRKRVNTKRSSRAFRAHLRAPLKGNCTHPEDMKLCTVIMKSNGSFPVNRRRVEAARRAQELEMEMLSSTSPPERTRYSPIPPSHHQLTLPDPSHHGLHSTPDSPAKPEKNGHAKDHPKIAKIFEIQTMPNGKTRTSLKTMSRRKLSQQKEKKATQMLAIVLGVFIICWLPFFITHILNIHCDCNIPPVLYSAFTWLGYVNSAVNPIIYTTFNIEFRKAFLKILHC
Experimental: [N-Methyl-^3H]Spiroperidol Binding to Cloned Human Dopamine D2Long Receptors
This assay measures the in vitro activity of drugs on cloned human dopamine D2Long (D2L) receptors and predicts the direct dopamine-displacing properties of neuropsychiatric, cardiovascular and renal agents at human dopamine D2 receptors.
Cells were maintained in Ham's F12+10% Fetal Bovine Serum+Penicillin/Streptomycin (100 U/ml/100 μg/ml)+G418 (400 μg/ml) medium and were split using Trypsin-EDTA (1 ml/plate, room temperature for ˜2 min. or until cells have lifted off plates). • 2. […] Plates are incubated at 37° C.+5% CO2 for ˜3 days or until cells were confluent.
Cells are harvested by mechanical scraping, washed using PBS collected in 250 ml Corning polypropylene centrifuge tubes, spun down and resuspended in dH2O (final volume per harvest approximately 60 ml). Protein determination is made according to the method of Lowry (Biorad DC Assay Kit). Following the determination of the protein concentration, the protein is diluted into distilled water with 10% DMSO to the appropriate volume based on expression levels (Bmax). The concentrated protein is aliquoted into 1.5 ml screw top eppendorf tubes and placed into a −80° C. freezer.
Assay Requirement: 1 cryovial per two 96 well plates
0.5M Tris Wash Buffer, pH 7.7 • a) 44.4 g Tris HCl • 26.5 g Tris Base • q.s. to 1 Liter (0.5 M Tris buffer, pH 7.7 at 37° C.) • b) make a 1:10 dilution in distilled H2O (0.05 M. Tris buffer, pH 7.7) • 2. Tris Buffer containing physiological salts • a) Stock buffer • NaCl 7.014 g • KCl 0.372 g • CaCl2 0.222 g • MgCl2 0.204 g • q.s. To 100 ml with 0.5 M. Tris Buffer • b) Dilute 1:10 in distilled H2O • This yields 0.05 M. Tris HCl, pH 7.7, containing NaCl (120 mM), KCl (5 mM), CaCl2 (2 mM) and MgCl2 (1 mM) • Optional: add 0.1% ascorbic acid and check pH (in assays with compounds that may oxidize. • c) 1.0% polyethyleneimine stock in 0.5M Tris (reagent 1.a) • Dilute 1:10 in distilled H2O Binding Assay • 750 μl Tissue • 150 μl [^3H]NMSP • 100 μl vehicle (for total binding) or 30 μM (−)
eticlopride (for nonspecific binding) or appropriate drug concentration.
The 96-Well Packard Unifilters GF/B are incubated for >1 h at 25° C. in 0.1% polyethylenimine. The cold tissue is added last and mixed on a orbital shaker for a few seconds and is then incubated at 37° C. for 30 min in a shaking water bath. The assay is stopped by rapid filtration through Packard Unifilter plates. The filter membranes are then washed with 15 ml of ice-cold 0.05 M Tris buffer. The filters are then dried (˜15 min. under a heat lamp or incubated for 15 min. in a 60° C. oven) and a bottom seal is applied. Then 40 μl of Packard Microscint 20 scintillation cocktail are added and a permanent topseal (Type P) is applied and heat sealed. The plates are placed in a Packard Topcount.
Specific binding is defined as the difference between total binding and the binding in the presence of 3 μM S-(−)-eticlopride. Total binding is approximately 10% of the total added ligand. […] The percent inhibition at each drug concentration is the mean of duplicate determinations.
In assay [2] the target is T1, D1 receptor (Homo sapiens, UniProt P21728).
T1 construct: expressed in transfected cells; host or cells: D1 transfected CHO cell line
T1 sequence (P21728 whole entry): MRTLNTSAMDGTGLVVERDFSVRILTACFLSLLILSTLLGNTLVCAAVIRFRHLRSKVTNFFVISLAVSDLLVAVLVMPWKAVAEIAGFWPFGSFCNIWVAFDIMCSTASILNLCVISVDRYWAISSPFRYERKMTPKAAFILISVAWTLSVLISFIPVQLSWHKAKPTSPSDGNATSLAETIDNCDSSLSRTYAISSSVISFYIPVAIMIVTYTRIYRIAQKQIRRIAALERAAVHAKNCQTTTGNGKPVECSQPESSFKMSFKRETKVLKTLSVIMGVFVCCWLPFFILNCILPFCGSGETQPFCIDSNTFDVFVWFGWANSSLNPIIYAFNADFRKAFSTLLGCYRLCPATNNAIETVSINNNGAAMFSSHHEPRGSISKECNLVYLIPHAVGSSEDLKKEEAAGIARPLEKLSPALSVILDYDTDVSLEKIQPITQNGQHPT
As to the kind of experiment: D1 Activation Adenylyl Cyclase Assay (cAMP FlashPlate, D1 transfected CHO cell line). The class given is cell-based. To be noted: agonist activity at the D1 receptor, adenylate cyclase assay, D1 transfected CHO cell line; read-out: D1 EC50. The method, boiled down:
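D1-transfected CHO cells (50,000/well) were exposed to compound 1/10 serial dilutions for 8 min at RT; cAMP measured by competitive 125I-cAMP FlashPlate against a standard curve. Response normalised between basal and saturating D1 agonist; EC50 at half-maximal stimulation, plateau reported as % maximal dopamine stimulation.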

Assay [3] deals with T2, human dopamine D1 receptor (Homo sapiens, UniProt P21728).
T2 construct: A 1.4 Kb Hind III to Xho I fragment was subcloned into the vector pMMLV; expressed in transfected cells; host or cells: CHO cells, clone CHO-D1M#9 (plasmid pHD1MMLV), membranes
T2 sequence (P21728 whole entry, the tested form may be a part): as the sequence (P21728 whole entry) above
As to the kind of experiment: [3H]-SCH-23390 binding to cloned human dopamine D1 receptors (CHO cell membranes). To be noted: competitive binding, [3H]-SCH-23390, cloned human D1 in CHO membranes; read-out: D1 affinity Ki.

For `Cc1ccc2c(c1O)C[C@@H](C1CCN(Cc3ccc(Cl)cc3Cl)CC1)O[C@H]2CN` [Example 59, (1R,3S)-1-Aminomethyl-3-[1-(2,4-dichloro-benzyl)-piperidin-4-yl]-6-methyl-isochroman-5-ol dihydrochloride], the Ki in assay [1] was 443 nM; in assay [3], 46.2 nM. Also, the EC50 in assay [2] is 12 nM.

As for `Cc1ccc2c(c1O)C[C@@H](C1CCN(Cc3ccc(Cl)c(Cl)c3)CC1)O[C@H]2CN` [Example 60, (1R,3S)-1-Aminomethyl-3-[1-(3,4-dichloro-benzyl)-piperidin-4-yl]-6-methyl-isochroman-5-ol dihydrochloride], the figures for the Ki in assay [1] and in assay [3] were 364 nM and 11.8 nM, respectively. Besides, in assay [2], the concentration giving a half-maximal response (EC50) was found to be 160 nM.

`Cc1cccc(CN2CCC([C@@H]3Cc4c(ccc(C)c4O)[C@H](CN)O3)CC2)c1` [Example 65, (1R,3S)-1-Aminomethyl-6-methyl-3-[1-(3-methyl-benzyl)-piperidin-4-yl]-isochroman-5-ol dihydrochloride]: the Ki in assay [1] worked out at 288 nM; in assay [3], 34 nM. Further, in assay [2], the EC50 was determined as 11 nM.

With `Cc1ccc2c(c1O)C[C@@H](C1CCN(Cc3cccc(C(F)(F)F)c3)CC1)O[C@H]2CN` [Example 73, (1R,3S)-1-Aminomethyl-6-methyl-3-[1-(3-trifluoromethyl-benzyl)-piperidin-4-yl]-isochroman-5-ol dihydrochloride], the inhibitory constant (Ki) in assay [1] was 431 nM; in assay [3], 63.5 nM. Moreover, the concentration for a half-maximal effect (EC50) in assay [2] is 15 nM.

In the case of `Cc1ccc2c(c1O)C[C@@H](C1CCN(Cc3ccc(C(F)(F)F)cc3)CC1)O[C@H]2CN` [Example 74, (1R,3S)-1-Aminomethyl-6-methyl-3-[1-(4-trifluoromethyl-benzyl)-piperidin-4-yl]-isochroman-5-ol dihydrochloride], the inhibition constant (Ki) in assay [1] was determined as 655 nM; in assay [3] it was 57 nM. Moreover, in assay [2], the EC50 stood at 6 nM.

Turning to `Cc1ccc2c(c1O)C[C@@H](C1CCN(Cc3cc(C(F)(F)F)cc(C(F)(F)F)c3)CC1)O[C@H]2CN` [Example 75, (1R,3S)-1-Aminomethyl-3-[1-(3,5-bis-trifluoromethyl-benzyl)-piperidin-4-yl]-6-methyl-isochroman-5-ol dihydrochloride], the inhibitory constant (Ki) in assay [1] came out at 120 nM; in assay [3] it was 42 nM. Further, the EC50 in assay [2] came out at 220 nM.

Consider `Cc1ccc2c(c1O)C[C@@H](C1CCN(Cc3cc(C(F)(F)F)ccc3C(F)(F)F)CC1)O[C@H]2CN` [Example 76, (1R,3S)-1-Aminomethyl-3-[1-(2,5-bis-trifluoromethyl-benzyl)-piperidin-4-yl]-6-methyl-isochroman-5-ol dihydrochloride], for which the figures for the Ki in assay [1] and in assay [3] were 41 nM and 92 nM, respectively. For the same molecule, the EC50 in assay [2] is 580 nM.

As for `Cc1ccc2c(c1O)C[C@@H](C1CCN(Cc3cc(C(F)(F)F)ccc3Cl)CC1)O[C@H]2CN` [Example 77, (1R,3S)-1-Aminomethyl-3-[1-(2-chloro-5-trifluoromethyl-benzyl)-piperidin-4-yl]-6-methyl-isochroman-5-ol dihydrochloride], the Ki in assay [1] is 40 nM; in assay [3], 36 nM. In addition, the EC50 in assay [2] is 80 nM.

Turning to `Cc1ccc2c(c1O)C[C@@H](C1CCN(Cc3ccc(Cl)c(C(F)(F)F)c3)CC1)O[C@H]2CN` [Example 78, (1R,3S)-1-Aminomethyl-3-[1-(4-chloro-3-trifluoromethyl-benzyl)-piperidin-4-yl]-6-methyl-isochroman-5-ol dihydrochloride], the Ki is 197 nM in assay [1] and 14 nM in assay [3]. Also, the half-maximal effective concentration (EC50) in assay [2] amounted to 2 nM.

For `Cc1ccc2c(c1O)C[C@@H](C1CCN(Cc3cc4ccccc4o3)CC1)O[C@H]2CN` [Example 85, (1R,3S)-1-Aminomethyl-3-(1-benzofuran-2-ylmethyl-piperidin-4-yl)-6-methyl-isochroman-5-ol dihydrochloride], the Ki is 389 nM in assay [1] and 25.6 nM in assay [3]. Besides, the EC50 in assay [2] turned out to be 16 nM.

For the molecule `Cc1ccc2c(c1O)C[C@@H](C1CCN(Cc3sc4ccccc4c3C)CC1)O[C@H]2CN` [Example 86, (1R,3S)-1-Aminomethyl-6-methyl-3-[1-(3-methyl-benzo[b]thiophen-2-ylmethyl)-piperidin-4-yl]-isochroman-5-ol dihydrochloride], the inhibition constant Ki worked out at 97.6 nM in assay [1] and 39.9 nM in assay [3]. Further, the concentration for a half-maximal effect (EC50) in assay [2] came to 77 nM.

Consider `Cc1ccc2c(c1O)C[C@@H](C1CCN(Cc3csc4ccccc34)CC1)O[C@H]2CN` [Example 87, (1R,3S)-1-Aminomethyl-6-methyl-3-(1-benzo[b]thiophen-3-ylmethyl-piperidin-4-yl)-isochroman-5-ol dihydrochloride], for which the inhibition constant (Ki) in assay [1] was 23.8 nM; in assay [3], 23.9 nM. Moreover, the EC50 in assay [2] stood at 27 nM.

For the molecule `Cc1ccc2c(c1O)C[C@@H](C1CCN(Cc3cc4ccccc4n3C)CC1)O[C@H]2CN` [Example 88, (1R,3S)-1-Aminomethyl-6-methyl-3-[1-(1-methyl-1H-indol-2-ylmethyl)-piperidin-4-yl]-isochroman-5-ol dihydrochloride], the values for the inhibitory constant (Ki) in assay [1] and in assay [3] were 109 nM and 66.5 nM, respectively. The EC50 in assay [2] came out at 29 nM.

With `Cc1ccc2c(c1O)C[C@@H](C1CCN(Cc3c[nH]c4ccccc34)CC1)O[C@H]2CN` [Example 89, (1R,3S)-1-Aminomethyl-3-[1-(1H-indol-3-ylmethyl)-piperidin-4-yl]-6-methyl-isochroman-5-ol dihydrochloride], the results for the Ki in assay [1] and in assay [3] were 199 nM and 18.9 nM, respectively. Also, the concentration for a half-maximal effect (EC50) in assay [2] came to 8 nM.

Turning to `Cc1ccc2c(c1O)C[C@@H](C1CCN(Cc3cn(C)c4ccccc34)CC1)O[C@H]2CN` [Example 90, (1R,3S)-1-Aminomethyl-6-methyl-3-[1-(1-methyl-1H-indol-3-ylmethyl)-piperidin-4-yl]-isochroman-5-ol trihydrochloride], the values for the inhibitory constant (Ki) in assay [1] and in assay [3] were 2.4 nM and 42.3 nM, respectively. In addition, the EC50 in assay [2] came out at 9 nM.

On to `Cc1ccc2c(c1O)C[C@@H](C1CCN(Cc3cn(Cc4ccccc4)c4ccccc34)CC1)O[C@H]2CN` [Example 91, (1R,3S)-1-Aminomethyl-3-[1-(1-benzyl-1H-indol-3-ylmethyl)-piperidin-4-yl]-6-methyl-isochroman-5-ol dihydrochloride], for which the values for the inhibition constant Ki in assay [1] and in assay [3] were 43.4 nM and 40.7 nM, respectively. Moreover, the EC50 in assay [2] came to 12 nM.

For `Cc1ccc2c(c1O)C[C@@H](C1CCN(Cc3nc4ccccc4n3C)CC1)O[C@H]2CN` [Example 92, (1R,3S)-1-Aminomethyl-6-methyl-3-[1-(1-methyl-1H-benzoimidazol-2-ylmethyl)-piperidin-4-yl]-isochroman-5-ol trihydrochloride], the values for the Ki in assay [1] and in assay [3] were 93.4 nM and 29.2 nM, respectively. Moreover, the concentration for a half-maximal effect (EC50) in assay [2] was 0.98 nM.

Take `CNC[C@@H]1O[C@H](C2CCN(CCc3ccccc3)CC2)Cc2c1ccc(C)c2O` [Example 94, (1R,3S)-6-Methyl-1-methylaminomethyl-3-(1-phenethyl-piperidin-4-yl)-isochroman-5-ol dihydrochloride]: the results for the Ki in assay [1] and in assay [3] were 285 nM and 113 nM, respectively. In addition, the concentration giving a half-maximal response (EC50) in assay [2] stood at 35 nM.

With `CNC[C@@H]1O[C@H](C2CCN(Cc3ccc(F)cc3)CC2)Cc2c1ccc(C)c2O` [Example 95, 1R,3S)-3-[1-(4-Fluoro-benzyl)-piperidin-4-yl]-6-methyl-1-methylaminomethyl-isochroman-5-ol dihydrochloride], the inhibition constant (Ki) in assay [1] was found to be 456 nM; in assay [3], 121 nM. Moreover, the concentration for a half-maximal effect (EC50) in assay [2] stood at 250 nM.

Take `CNC[C@@H]1O[C@H](C2CCN(Cc3ccc(C(C)C)cc3)CC2)Cc2c1ccc(C)c2O` [Example 97, (1R,3S)-3-[1-(4-Isopropyl-benzyl)-piperidin-4-yl]-6-methyl-1-methylaminomethyl-isochroman-5-ol dihydrochloride]: the Ki in assay [1] turned out to be 357 nM; in assay [3], 53.1 nM. Besides, the EC50 in assay [2] was determined as 66 nM.

`CNC[C@@H]1O[C@H](C2CCN(Cc3ccc(-c4ccccc4)cc3)CC2)Cc2c1ccc(C)c2O` [Example 98, (1R,3S)-3-(1-Biphenyl-4-ylmethyl-piperidin-4-yl)-6-methyl-1-methylaminomethyl-isochroman-5-ol dihydrochloride]: the values for the inhibitory constant (Ki) in assay [1] and in assay [3] were 239 nM and 60.3 nM, respectively. The EC50 in assay [2] was determined as 15 nM.

For the molecule `CNC[C@@H]1O[C@H](C2CCN(Cc3ccc(OC)cc3)CC2)Cc2c1ccc(C)c2O` [Example 99, (1R,3S)-3-[1-(4-Methoxy-benzyl)-piperidin-4-yl]-6-methyl-1-methylaminomethyl-isochroman-5-ol dihydrochloride], the inhibition constant (Ki) in assay [1] is 307 nM; in assay [3], 53.1 nM. In addition, in assay [2], the EC50 was found to be 22 nM.

Turning to `CNC[C@@H]1O[C@H](C2CCN(Cc3ccc(F)c(F)c3)CC2)Cc2c1ccc(C)c2O` [Example 100, (1R,3S)-3-[1-(3,4-Difluoro-benzyl)-piperidin-4-yl]-6-methyl-1-methylaminomethyl-isochroman-5-ol dihydrochloride], the values for the inhibitory constant (Ki) in assay [1] and in assay [3] were not below 100000 nM and 43.1 nM, respectively. Moreover, in assay [2], the EC50 is 60 nM.

With `CNC[C@@H]1O[C@H](C2CCN(Cc3ccc(C)cc3)CC2)Cc2c1ccc(C)c2O` [Example 101, (1R,3S)-6-Methyl-1-methylaminomethyl-3-[1-(4-methyl-benzyl)-piperidin-4-yl]-isochroman-5-ol dihydrochloride], the Ki in assay [1] came out at 322 nM; in assay [3], 92.2 nM. Further, the EC50 in assay [2] is 33 nM.
